ChEMBL document CHEMBL1201862, “PubChem BioAssay data set” (2004)
Where “and” joins values, the source holds several entries; their conditions need not be identical. Equal entries are not always repeated. Calls of active or inactive are those of the source.

How the values were obtained:
[1] = target: Cytochrome P450 2D6 (Homo sapiens, UniProt P10635);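 further: CYP2D6 member of a cytochrome P450 panel assay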
[2] = target: Cytochrome P450 3A4 (Homo sapiens, UniProt P08684);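 further: CYP3A4 tested as one member of a cytochrome P450 panel screen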
[3] = Trypanosoma cruzi growth suppression in host cells – NIH3T3 host cells, beta-gal luminescence, confirmation (AID 2044); assay type: functional, cell-based;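 further: intracellular parasites grown in NIH/3T3 mouse fibroblasts as host cells; luminescent beta-galactosidase reporter signal from transgenic T. cruzi replicating inside host cells; inhibitors lower the luminescence signal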
[4] = NIH3T3 cell viability loss – ATP luminescence, mouse fibroblasts, counter-screen, dose response (AID 2010); assay type: functional, cell-based;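 further: cells exposed to compound for about 90 hours before reading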
[5] = target: Cytochrome P450 2C19 (Homo sapiens, UniProt P33261); assay: Cytochrome panel assay with activity outcomes. Panel member name: p450-cyp2c19 Compounds with AC50 equal or less than 10 uM are considered active; assay type: functional
[6] = target: Cytochrome P450 2C9 (Homo sapiens, UniProt P11712)
[7] = target: T1, Corticotropin-releasing factor receptor 2/Corticotropin-releasing factor-binding protein (Homo sapiens, UniProt P24387+Q13324); assay: Dose Response confirmation of uHTS hits for small molecule antagonists of the CRF-binding protein and CRF-R2 receptor complex.; assay type: functional; conditions: read-out: IC50_Mean
T1 sequence (Q13324 whole entry): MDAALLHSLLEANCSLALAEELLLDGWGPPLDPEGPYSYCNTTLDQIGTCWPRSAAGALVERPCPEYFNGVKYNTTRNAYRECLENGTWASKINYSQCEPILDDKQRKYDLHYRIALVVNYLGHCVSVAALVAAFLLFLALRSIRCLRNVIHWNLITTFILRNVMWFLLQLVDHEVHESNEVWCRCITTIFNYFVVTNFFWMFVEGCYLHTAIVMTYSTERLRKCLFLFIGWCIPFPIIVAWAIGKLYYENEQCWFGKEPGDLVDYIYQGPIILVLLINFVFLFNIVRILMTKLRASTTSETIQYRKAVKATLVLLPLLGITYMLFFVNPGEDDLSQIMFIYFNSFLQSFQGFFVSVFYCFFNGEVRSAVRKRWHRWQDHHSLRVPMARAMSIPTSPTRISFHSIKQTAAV
T1 sequence (P24387 whole entry): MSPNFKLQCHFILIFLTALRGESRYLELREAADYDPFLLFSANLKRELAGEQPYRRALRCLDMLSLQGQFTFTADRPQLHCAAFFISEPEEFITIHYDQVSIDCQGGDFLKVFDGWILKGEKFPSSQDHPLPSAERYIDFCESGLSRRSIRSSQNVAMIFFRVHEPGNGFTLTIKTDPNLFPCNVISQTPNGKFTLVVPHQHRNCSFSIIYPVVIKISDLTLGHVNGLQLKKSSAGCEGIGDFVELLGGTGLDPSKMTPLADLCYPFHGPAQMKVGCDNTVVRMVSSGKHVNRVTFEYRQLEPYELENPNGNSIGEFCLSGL

[8] = target: T1, Corticotropin-releasing factor receptor 2/Corticotropin-releasing factor-binding protein; assay: activators of CRF receptor 2 with binding protein – uHTS hits, confirmation (AID 602473); assay type: functional; conditions: read-out: EC50_Mean
[9] = test system: Streptococcus sp. 'group A'; assay: Streptococcus pyogenes SK(-)GAS viability under kanamycin – luminescence, BacTiterGlo, confirmation, counter-screen for streptokinase expression inhibitor project, dose response (AID 1900); assay type: functional, organism-based
[10] = test system: Streptococcus; assay: GAS UMAA2166 growth inhibition – luminescence, BacTiterGlo, counter-screen for streptokinase expression inhibitor project, dose response (AID 1915); assay type: functional, organism-based;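 further: potency for reduction of bacterial viability or growth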
[11] = target: T2, Streptokinase A (Streptococcus pyogenes serotype M1, UniProt P10520); assay: viability-normalized secreted streptokinase activity reduction – plasminogen activation absorbance, OD405, dose response (AID 1914); assay type: functional, Streptococcus pyogenes M1 GAS;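 further: secreted streptokinase activity via plasminogen activation per viability signal from cell pellet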
T2 sequence (P10520 whole entry): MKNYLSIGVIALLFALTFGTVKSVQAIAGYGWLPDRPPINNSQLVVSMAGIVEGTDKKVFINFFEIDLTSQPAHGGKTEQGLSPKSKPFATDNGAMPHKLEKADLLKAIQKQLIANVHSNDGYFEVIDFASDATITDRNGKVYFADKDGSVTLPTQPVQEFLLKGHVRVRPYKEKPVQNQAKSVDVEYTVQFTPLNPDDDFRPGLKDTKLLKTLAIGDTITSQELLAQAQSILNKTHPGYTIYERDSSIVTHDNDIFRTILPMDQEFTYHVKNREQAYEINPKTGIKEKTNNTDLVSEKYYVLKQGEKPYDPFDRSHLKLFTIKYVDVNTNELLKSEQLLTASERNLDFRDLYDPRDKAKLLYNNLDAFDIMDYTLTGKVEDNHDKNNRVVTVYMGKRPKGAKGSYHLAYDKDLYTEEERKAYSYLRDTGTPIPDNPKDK

[12] = Luminescence Cell-Based Dose Response HTS to Identify Activators of Luciferase Translation or Activity in H4 […] Cells. [Related pubchem assays: 1829 (Project Summary), 1814 (Primary HTS)]; assay type: functional
[13] = test system: H4; assay: Luminescence Cell-Based Dose Response HTS to Identify Activators of 5'UTR Stem-Loop Driven Prion Protein mRNA Translation in H4 Neuroglioblastoma Cells. [Related pubchem assays: 1829 (Project Summary), 1814 (Primary HTS)]; assay type: functional; conditions: Homo sapiens

Sequence of Cytochrome P450 2C9 (P11712 whole entry): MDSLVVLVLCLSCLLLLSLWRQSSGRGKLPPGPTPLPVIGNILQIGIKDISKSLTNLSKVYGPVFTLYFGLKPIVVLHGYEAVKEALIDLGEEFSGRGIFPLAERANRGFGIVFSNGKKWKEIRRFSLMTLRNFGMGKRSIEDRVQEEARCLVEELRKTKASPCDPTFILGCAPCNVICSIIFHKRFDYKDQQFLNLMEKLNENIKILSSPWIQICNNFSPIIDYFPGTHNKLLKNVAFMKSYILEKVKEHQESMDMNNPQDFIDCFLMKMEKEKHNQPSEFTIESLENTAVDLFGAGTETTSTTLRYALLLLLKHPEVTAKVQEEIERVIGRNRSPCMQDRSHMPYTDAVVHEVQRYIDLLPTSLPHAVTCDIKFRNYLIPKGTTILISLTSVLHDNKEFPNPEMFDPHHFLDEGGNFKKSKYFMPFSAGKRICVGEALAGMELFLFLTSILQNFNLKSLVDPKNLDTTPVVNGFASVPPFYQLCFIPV
Sequence of Cytochrome P450 3A4 (P08684 whole entry): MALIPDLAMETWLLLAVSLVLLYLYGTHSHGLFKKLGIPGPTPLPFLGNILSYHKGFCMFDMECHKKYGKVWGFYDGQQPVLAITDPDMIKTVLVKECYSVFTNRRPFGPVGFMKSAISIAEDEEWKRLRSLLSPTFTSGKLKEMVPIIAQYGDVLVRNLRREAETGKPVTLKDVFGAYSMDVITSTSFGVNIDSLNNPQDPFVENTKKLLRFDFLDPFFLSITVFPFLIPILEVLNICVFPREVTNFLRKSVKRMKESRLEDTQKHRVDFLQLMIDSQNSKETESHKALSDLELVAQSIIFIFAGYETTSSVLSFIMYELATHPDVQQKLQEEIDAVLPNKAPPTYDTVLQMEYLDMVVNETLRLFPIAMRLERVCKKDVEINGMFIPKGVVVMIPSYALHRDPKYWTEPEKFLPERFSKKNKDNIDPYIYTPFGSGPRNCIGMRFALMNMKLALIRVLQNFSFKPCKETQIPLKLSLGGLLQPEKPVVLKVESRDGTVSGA
Sequence of Cytochrome P450 2D6 (P10635 whole entry): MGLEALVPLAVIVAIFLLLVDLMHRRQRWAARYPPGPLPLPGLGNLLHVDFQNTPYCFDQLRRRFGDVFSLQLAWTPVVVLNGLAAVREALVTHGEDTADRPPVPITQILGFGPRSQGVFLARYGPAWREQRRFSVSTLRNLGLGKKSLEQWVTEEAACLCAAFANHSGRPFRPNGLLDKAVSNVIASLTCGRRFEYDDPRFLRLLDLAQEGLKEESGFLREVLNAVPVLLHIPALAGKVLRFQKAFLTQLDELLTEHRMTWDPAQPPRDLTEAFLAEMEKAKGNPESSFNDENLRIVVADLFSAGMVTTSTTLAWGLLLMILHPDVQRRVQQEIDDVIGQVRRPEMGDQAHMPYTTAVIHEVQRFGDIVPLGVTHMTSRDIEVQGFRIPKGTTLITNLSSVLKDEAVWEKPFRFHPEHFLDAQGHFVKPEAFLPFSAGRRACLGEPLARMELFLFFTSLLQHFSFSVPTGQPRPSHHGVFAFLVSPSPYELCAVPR
Sequence of Cytochrome P450 2C19 (P33261 whole entry): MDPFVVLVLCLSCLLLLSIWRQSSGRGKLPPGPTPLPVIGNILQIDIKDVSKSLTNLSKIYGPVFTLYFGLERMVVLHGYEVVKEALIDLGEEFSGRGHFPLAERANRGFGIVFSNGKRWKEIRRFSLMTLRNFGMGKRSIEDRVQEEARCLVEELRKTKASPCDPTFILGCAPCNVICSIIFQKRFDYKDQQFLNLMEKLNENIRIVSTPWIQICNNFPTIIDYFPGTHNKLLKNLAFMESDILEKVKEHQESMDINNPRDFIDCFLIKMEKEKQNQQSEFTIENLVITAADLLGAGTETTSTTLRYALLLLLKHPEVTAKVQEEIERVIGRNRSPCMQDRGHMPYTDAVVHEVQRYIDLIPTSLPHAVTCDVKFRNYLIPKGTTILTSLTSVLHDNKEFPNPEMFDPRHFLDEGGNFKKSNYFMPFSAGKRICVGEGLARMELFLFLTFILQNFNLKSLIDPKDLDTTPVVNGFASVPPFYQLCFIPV

## OCCNc1nc(SCc2ccccc2)nc2sc3c(c12)CCC3
[1]
  AC50: 25.1 µM (inconclusive)

## CC12CS(=O)(=O)CC1SC(=S)N2c1ccccn1 (centres undefined)
[2]
  AC50: 17.8 µM (inconclusive)

## CN(C)CCn1c(=O)n(Cc2ccco2)c(=O)c2c3c(sc21)CCCCC3
[3]
  EC50: 0.196 µM (active)
[2]
  AC50: 12.6 µM (inconclusive)
[4]
  EC50: > 60 µM (not active)

## O=C(Oc1ccccc1)N1CCC2(CCCN(Cc3ccccc3)C2)CC1
[1]
  AC50: 10 µM (inconclusive)
[2]
  AC50: 12.6 µM (inconclusive)

## CCCC(c1cc(C(C)(C)C)c(O)cc1C)c1cc(C(C)(C)C)c(O)cc1C
[1]
  AC50: 3.98 µM (inconclusive)
[5]; read-out: AC50
  AC50: 6.31 µM (inconclusive)
[6]
  AC50: 3.16 µM (inconclusive)

## CS(=O)(=O)Nc1cccc(-c2ccc3ncnc(Nc4ccc(F)cc4)c3c2)c1
[1]
  AC50: 39.8 µM (inconclusive)

## Cc1ccc(C(=O)OCn2nnc3ccccc3c2=O)cc1[N+](=O)[O-]
[7]
  IC50: > 47.1 µM (inactive)
[8]
  EC50: > 53 µM (inactive)

## CCOc1cc(N2CCOCC2)c(OCC)cc1NC(=O)C1=NN(c2cccc(C)c2)C(=O)CC1
[9]
  EC50: 13.8 µM (active)
[10]
  EC50: 123 µM (active)
[11]
  EC50: > 150 µM (not active)

## CC(C)(C)CC(=O)NC(=S)Nc1ccccc1C(F)(F)F
[2]
  AC50: 22.4 µM (inconclusive)

## CO[C@@H]1COC(=O)C/C=C\[C@@H](C)COC(=O)[C@H](COCc2ccccc2)NC(=O)C/C=C\[C@H]1C
[2]
  AC50: 3.98 µM (inconclusive)

## COc1ccc2[nH]cc(CCNc3cc(-c4cccc(C#N)c4)ncn3)c2c1
[1]
  AC50: 20 µM (inconclusive)

## CCCc1ccc2oc(C(=O)N3CCC[C@H]3CO)c(C)c2c1
[12]
  EC50: 1.11 µM (active)
[13]
  EC50: > 120 µM (not active)

## CC(C)(C)c1cc(NCc2ccccn2)n2ncc(-c3ccc(Cl)cc3)c2n1
[9]
  EC50: 2.44 µM (active)
[10]
  EC50: 3.1 µM (active)
[11]
  EC50: > 150 µM (not active)

## c1ccc2c(NCCN3CCOCC3)nc(-c3ccoc3)nc2c1
[1]
  AC50: 25.1 µM (inconclusive)
[2]
  AC50: 15.8 µM (inconclusive)

## O=c1c(-c2ccccc2)nc2cncnc2n1Cc1ccccc1Cl
[5]; read-out: AC50
  AC50: 7.94 µM (inconclusive)
[6]
  AC50: 3.16 µM (inconclusive)

## COc1ccc([C@@H](Nc2ccccn2)c2cc(C(C)(C)C)cc(C(C)(C)C)c2O)cc1
[2]
  AC50: 2 µM (inconclusive)

## CCC1(C)Cc2c(sc3nc(SC)nc(S)c23)CO1 (centres undefined)
[9]
  EC50: 1.84 µM (active)
[10]
  EC50: > 150 µM (not active)
[11]
  EC50: > 150 µM (not active)

## CC(NC(=O)COC(=O)c1ccc2c(=O)n3c(nc2c1)CCCCC3)c1ccccc1 (centres undefined)
[7]
  IC50: > 47.1 µM (inactive)
[8]
  EC50: > 53 µM (inactive)

## COC(=O)c1ccc(C(NC(=O)c2ccco2)[C@]2(C)C[C@H]2C2CCCCC2)cc1 (some centres undefined)
[1]
  AC50: 12.6 µM (inconclusive)

## Cc1cccc(N(CC(=O)NCCSCc2ccco2)S(=O)(=O)c2ccccc2)c1
[2]
  AC50: 3.55 µM (inconclusive)

## CCC1=NN(C(=O)CCc2ccccc2)C(O)(C(F)(F)F)C1 (centres undefined)
[2]
  AC50: 15.8 µM (inconclusive)

## CC(C)(C)NC(=O)/C(=C/c1ccccc1F)NC(=O)c1ccc([N+](=O)[O-])cc1
[7]
  IC50: > 47.1 µM (inactive)
[8]
  EC50: > 53 µM (inactive)

## CCOc1ccc(C(=O)NC(=S)Nc2ccc(NC(=O)CC)cc2)cc1[N+](=O)[O-]
[9]
  EC50: 4.28 µM (active)
[10]
  EC50: 64.4 µM (active)
[11]
  EC50: > 150 µM (not active)

## C=C1C(O)(c2ccccc2)C2CC[N+]1(C)CC2.[Cl-] (centres undefined)
[5]
  AC50: inconclusive
[2]
  AC50: 3.16 µM (inconclusive)

## CC(C)OCCCN1C(=O)c2ccccc2C1C(=O)NC1CCCCC1 (centres undefined)
[5]; read-out: AC50
  AC50: 35.5 µM (inconclusive)
[6]
  AC50: 7.08 µM (inconclusive)

## Cc1ccc2c(Cl)cc(Cl)c(OCC(=O)NC(C)(C)C)c2n1
[9]
  EC50: 12.7 µM (active)
[10]
  EC50: > 150 µM (not active)
[11]
  EC50: > 150 µM (not active)

## CCCCCCNC=C1C(=O)N(C)C(=O)N(C)C1=O
[5]; read-out: AC50
  AC50: 15.8 µM (inconclusive)
[6]
  AC50: 14.1 µM (inconclusive)

## COc1cccc(C(C(=O)Nc2ccc(F)cc2)N(C(=O)Cn2nnc3ccccc32)C2CC2)c1 (centres undefined)
[1]
  AC50: 25.1 µM (inconclusive)

## CCn1c(SCC(=O)NC2CCCCC2)nc2c(c1=O)SC(C)C2 (centres undefined)
[1]
  AC50: 1.58 µM (inconclusive)

## Cc1ccc(C(=O)Nc2nc3ccccc3n3nnnc23)cc1
[1]
  AC50: 12.6 µM (inconclusive)
[5]; read-out: AC50
  AC50: 14.1 µM (inconclusive)
[2]
  AC50: 10 µM (inconclusive)

## CC(Oc1ccc(Cl)cc1Cl)C(=O)NC1=NN(c2ccccc2)C(=O)C1 (centres undefined)
[9]
  EC50: 3.04 µM (active)
[10]
  EC50: 6.39 µM (active)
[11]
  EC50: 123 µM (inconclusive)

## O=c1c(-c2ccc(F)cc2)nc2cnc(N3CCNCC3)nc2n1-c1ccccc1
[5]
  AC50: inconclusive
[2]
  AC50: 25.1 µM (inconclusive)

## CCOc1ccccc1N1CCN(C(=O)Cc2ccc(S(=O)(=O)N3CCOCC3)s2)CC1
[7]
  IC50: > 47.1 µM (inactive)
[8]
  EC50: > 53 µM (inactive)

## O=C(Nc1cccc(-c2cnc3ccccc3n2)c1)c1ccc(Cl)cc1
[2]
  AC50: 3.55 µM (inconclusive)
[6]
  AC50: 1.78 µM (inconclusive)

## Nc1nc(-c2cccs2)cs1
[5]; read-out: AC50
  AC50: 3.98 µM (inconclusive) and 39.8 µM (inconclusive)
[2]
  AC50: 3.98 µM (inconclusive) and 25.1 µM (inconclusive)

## CCOc1ccc(CNC(=O)C2CC(=O)N(C3CCCC3)C2)cc1OC (centres undefined)
[5]; read-out: AC50
  AC50: 39.8 µM (inconclusive)
[2]
  AC50: 25.1 µM (inconclusive)

## Cc1nc2ncnn2c(C)c1CCC(=O)Nc1ccc(S(=O)(=O)N2CCCCCC2)cc1
[2]
  AC50: 39.8 µM (inconclusive)

## COc1ccc(-c2nc3cnc(OCc4ccccc4)nc3n(CCC#N)c2=O)cc1
[2]
  AC50: 10 µM (inconclusive)

## COc1ccccc1C(=O)NCCn1cc(SCC(=O)Nc2nnc(C)s2)c2ccccc21
[1]
  AC50: 28.2 µM (inconclusive)

## Cc1ccnn2cc3c(=O)n(C)c(=O)n(C)c3c12
[1]
  AC50: 20 µM (inconclusive)
[6]
  AC50: 11.2 µM (inconclusive)

## CCOC(=O)C1CCCN(C(=O)COC(=O)c2cccs2)C1 (centres undefined)
[7]
  IC50: > 47.1 µM (inactive)
[8]
  EC50: > 53 µM (inactive)

## O=C(NC1(C(F)(F)F)C(=O)Nc2c1c(=O)[nH]c(=O)n2Cc1ccccc1)c1ccc(Cl)cc1 (centres undefined)
[7]
  IC50: > 47.1 µM (inactive)
[8]
  EC50: > 53 µM (inactive)

## CC1CN(C2CCN(C(=O)c3cccc(Cl)c3)CC2)CC(C)O1 (centres undefined)
[1]
  AC50: 0.891 µM (inconclusive)
[5]; read-out: AC50
  AC50: 5.62 µM (inconclusive)

## CC(NC(=O)C1(C)CC1(Br)Br)C(C)(C)C (centres undefined)
[2]
  AC50: 14.1 µM (inconclusive)

## CC1CN(S(=O)(=O)c2ccc(C(=O)N3CCc4ccccc43)cc2)CC(C)O1 (centres undefined)
[7]
  IC50: > 47.1 µM (inactive)
[8]
  EC50: > 53 µM (inactive)

## Cc1ccc2[nH]c(C(=O)N/N=C/c3ccccc3C(=O)O)c(-c3ccccc3)c2c1
[8]
  EC50: 5.26 µM (active)

## COc1ccc(CC(=O)N/N=C(\C)c2ccc(Br)s2)cc1
[7]
  IC50: > 47.1 µM (inactive)
[8]
  EC50: > 53 µM (inactive)

## c1ccc2sc(C3(N4CCCCC4)CCCCC3)cc2c1
[2]
  AC50: 15.8 µM (inconclusive) and 25.1 µM (inconclusive)

## NC[C@H](O)c1cc(O)c(O)cc1F
[2]
  AC50: 31.6 µM (inconclusive)

## CN1[C@@H]2CC[C@H]1C[C@@H](OC(=O)c1c[nH]c3ccccc13)C2 [TROPISETRON]
[1]
  AC50: 31.6 µM (inconclusive)
